From US20220220100A1 (SOLUTIA CANADA INC., priority 2019, published 2022)

What was measured:
[1] = UV/Vis absorbance at 400 nm and Yellowness Index of the ring-open isomer; assay type: physicochemical; conditions: for Abs @ 400 nm, RO (Absorption of ring-open isomer at 400 nm): 2×10^−5 M solution, 1 cm pathlength cuvette
Text: In addition to the above, chromophores should have acceptable colour for both the ring-opened and ring-closed isomers. For example, the ring-open isomer of the chromophore should have a Yellowness Index (YI) of less than about 10 and an absorbance at 400 nm, as measured for a 2×10^−5 M solution in a 1 cm pathlength cuvette. For the ring-closed isomer of the chromophore, the lambda max should be between about 475 nm and 700 nm, tunable according to desired colour and number of chromophores in the composition.
UV/Vis spectra were obtained using an OceanOptics™ Spectrophotometer. A 2×10^−5 M solution of compound in solvent was prepared, and photofaded using visible light until absorption in the visible region of the spectrum stabilized. The sample was then irradiated with simulated sunlight (QSUN SS-150 Solar Simulator with xenon arc lamp) until the absorption spectrum stabilized. To obtain PSS in the presence of a UV blocking film, a second sample was prepared and irradiated as described, with a UV blocking film inserted in the light path when irradiating.

[2] = Photostability: xenon arc weathering of chromophore solutions, LCMS analysis; assay type: physicochemical; conditions: for Ketone (%) / Minus-2HF (%) / Minus-HF (%) / Sulfone (%) / Chromophore Remaining (%): xenon arc, 82° C. bp; for Ketone (%) / Minus-2HF (%) / Minus-HF (%) / Sulfone (%): linearly interpolated to 0.5 MJ/m2 @ 340 nm; for Chromophore Remaining (%): linearly interpolated to 0.5 MJ/m2 @ 340 nm of exposure energy; for Photostability (in words): weathering experiments
Text: Photostability (resistance to light-induced degradation) may be measured by the amount of time required for the compound, or a material comprising the compound, to degrade to a certain point under light exposure. The light exposure may be constant, or cyclic. The light transmittance or absorbance of the compound, or material comprising the compound, may be determined at both a light state and dark state prior to testing, to determine a contrast ratio. During testing, the contrast ratio may be monitored (periodically or continually), the compound or material may be determined to have failed when the contrast ratio falls outside, or below, a selected range, or when the contrast ratio decreases to a percentage of the original contrast ratio. Photostability may also be expressed with reference to a light source or with reference to a type of light.
Chromophore solutions in Rhodiasolv IRIS were prepared at 1 to 10 wt % loading. Solutions were prepared in a glovebox by charging the chromophore and Rhodiasolv IRIS to a trace-clean vial, and the solution was stirred on a hotplate at 90° C. for 2-24 hours. After cooling, the chromophore solution was injected into glass weathering cells and the fill and vent ports were sealed with a thin disc of Kalrez (FFKM Perfluorinated Elastomer) and secured with a clamp and set-screw. The weathering cells were filled and sealed inside the glove box.
Measurement of Photostability
A. Fabrication of cuvettes. Two holes of 0.8 mm diameter were drilled at opposite ends in a 75×50 mm piece of float glass using a diamond drill bit in a rotary tool. The drilled glass and a matching piece of undrilled glass were then cleaned using hot soapy water, rinsed with deionized water and acetone and then dried with compressed air. A 5 mm wide frame was cut from a sheet of 50 μm thickness EVAL EF-F using a laser engraver. The EVAL frame was placed around the perimeter of one sheet of glass and sandwiched by the second sheet of glass. The glass-EVAL-glass sandwich was secured with tape and heated under vacuum (10 mmHg) for 30 minutes at 170° C. in a vacuum bag. After cooling, a third piece of float glass was PVB laminated to the non-drilled side of the sealed glass cells using Trosifol UV Extra Protect B150 PVB (400 nm UV cut-off).
B. Xenon arc weathering protocol. Devices were exposed to simulated weathering conditions inside a Xe-3-HS xenon arc chamber, manufactured by Q-labs Inc. The samples were weathered according to the following table. The devices were exposed to these conditions continuously, with no dark or spray cycles included.
C. Analysis of weathered chromophore solutions by LCMS. The set-screws, metal clamps and Kalrez plugs were removed from the cuvette to expose the fill port. A 5 mL plastic syringe (NORM-JECT®) equipped with a tip (Precision Tips, 0.010″ RED) was inserted into one fill port and the chromophore solution was withdrawn from the cuvette. The chromophore solution was then injected into a 2 mL amber vial (part number 5182-0716, Agilent Technology) prefilled with 1.5 mL LC-MS grade acetonitrile (HiPerSolbe CHROMANORM Acetonitrile, VWR BDH Chemicals). An aliquot of the acetonitrile solution (2 μL) was injected into the LC-MS system (Agilent Infinity 1290 LC-MS system with diode array detector) through an autosampler mechanism. Species in the injected sample were separated through a reverse phase column (Zorbax SB-C18, 2.1×50 mm, 1.8 μm, operated at 40° C.), using a mixture of acetonitrile (mixed with 1% formic acid v/v ratio), methanol (HiPerSolbe CHROMANORM Methanol, VWR BDH Chemicals) and water (HiPerSolbe CHROMANORM Water, VWR BDH Chemicals) as mobile phase.

[3] = 3 wt %, interpolated to 0.5 MJ/m^2 of energy exposure at 340 nm
[4] = 1 wt %, interpolated to 0.5 MJ/m^2 of energy exposure at 340 nm
[5] = 10 wt %, interpolated to 0.5 MJ/m^2 of energy exposure at 340 nm

## COc1ccc2c(C3=C(c4cc(-c5ccc(C(C)(C)C)s5)sc4-c4ccc(C(C)(C)C)s4)C(F)(F)C(F)(F)C3(F)F)c(-c3ccc(C(C)(C)C)cc3)oc2c1
[1]
  YI (Yellowness Index): 3.32
  Abs @ 400 nm, RO (Absorption of ring-open isomer at 400 nm): 0.0809
[2]; 3 wt % in Rhodiasolv IRIS
  Ketone (%): 0.0%
  Minus-2HF (%): 1.9%
  Minus-HF (%): 6.9%
  Sulfone (%): 0.0%
  Chromophore Remaining (%): 86.9%
[2]; [3]
  Ratio of chromophore remaining relative to S340: 0.95
[2]
  Photostability (in words): more rapid degradation compared to S340

## COc1cc2oc(-c3ccc(C(C)(C)C)cc3)c(C3=C(c4cc(-c5cc6c(s5)C(C)(C)CCC6(C)C)sc4-c4cc5c(s4)C(C)(C)CCC5(C)C)C(F)(F)C(F)(F)C3(F)F)c2cc1OC
[1]
  YI (Yellowness Index): 8.12
  Abs @ 400 nm, RO (Absorption of ring-open isomer at 400 nm): 0.131
[2]; 1 wt % in Rhodiasolv IRIS
  Ketone (%): 3.3%
  Minus-2HF (%): 0.0%
  Minus-HF (%): 1.3%
  Sulfone (%): 3.1%
  Chromophore Remaining (%): 92.3%
[2]; [4]
  Ratio of chromophore remaining relative to S340: 1.01
  Sum of degradation product percentages relative to the sum of degradation product percentages for S340: 0.87
[2]
  Photostability (in words): high photostability

## COCCCOc1cc2oc(-c3ccc(C(C)(C)C)cc3)c(C3=C(c4cc(-c5cc(C(C)(C)C)cs5)sc4-c4cc(C(C)(C)C)cs4)C(F)(F)C(F)(F)C3(F)F)c2cc1OCCCOC
[1]
  YI (Yellowness Index): 4.29
  Abs @ 400 nm, RO (Absorption of ring-open isomer at 400 nm): 0.103
[2]
  Formation of the Minus-HF degradation product (in words): prevents the Minus-HF product
  Photostability (in words): high photostability
[2]; 10 wt % in Rhodiasolv IRIS
  Ketone (%): 0.0%
  Minus-2HF (%): 0.0%
  Minus-HF (%): 0.0%
  Sulfone (%): 0.1%
  Chromophore Remaining (%): 98.6%
[2]; [5]
  Ratio of chromophore remaining relative to S340: 1.08

## CC(C)(C)c1ccc(-c2oc3cc(OCCN4C(=O)CCC4=O)c(OCCN4C(=O)CCC4=O)cc3c2C2=C(c3cc(-c4cc(C(C)(C)C)cs4)sc3-c3cc(C(C)(C)C)cs3)C(F)(F)C(F)(F)C2(F)F)cc1
[1]
  YI (Yellowness Index): 4.72
  Abs @ 400 nm, RO (Absorption of ring-open isomer at 400 nm): 0.136
[2]; 10 wt % in Rhodiasolv IRIS
  Ketone (%): 0.0%
  Minus-2HF (%): 0.0%
  Minus-HF (%): 0.0%
  Sulfone (%): 0.0%
  Chromophore Remaining (%): 95.3%
[2]; [5]
  Ratio of chromophore remaining relative to S340: 1.05
[2]
  Photostability (in words): high photostability

## COc1cc2oc(-c3ccc(C(C)(C)C)cc3)c(C3=C(c4cc(-c5ccc(C(C)(C)C)s5)sc4-c4ccc(C(C)(C)C)s4)C(F)(F)C(F)(F)C3(F)F)c2cc1OC [Chromophore S340, 2-(4-(tert-butyl)phenyl)-3-(2-(5,5″-di-tert-butyl-[2,2′:5′,2″-terthiophen]-3′-yl)-3,3,4,4,5,5-hexafluorocyclopent-1-en-1-yl)-5,6-dimethoxybenzofuran]
[1]
  YI (Yellowness Index): 5.61
  Abs @ 400 nm, RO (Absorption of ring-open isomer at 400 nm): 0.128
[2]; 3 wt % in Rhodiasolv IRIS
  Ketone (%): 0.0%
  Minus-2HF (%): 1.0%
  Minus-HF (%): 3.5%
  Sulfone (%): 0.0%
  Chromophore Remaining (%): 91.1%
[2]; [3]
  Ratio of chromophore remaining relative to S340: 1.00
[2]
  Photostability (in words): acceptable photostability

## CC(C)(C)c1ccc(-c2oc3ccccc3c2C2=C(c3cc(-c4ccc(C(C)(C)C)s4)sc3-c3ccc(C(C)(C)C)s3)C(F)(F)C(F)(F)C2(F)F)cc1 [Chromophore S343, 2-(4-(tert-butyl)phenyl)-3-(2-(5,5″-di-tert-butyl-[2,2′:5′,2″-terthiophen]-3′-yl)-3,3,4,4,5,5-hexafluorocyclopent-1-en-1-yl)benzofuran]
[1]
  YI (Yellowness Index): 4.87
  Abs @ 400 nm, RO (Absorption of ring-open isomer at 400 nm): 0.11
[2]; 3 wt % in Rhodiasolv IRIS
  Ketone (%): 0.0%
  Minus-2HF (%): 3.1%
  Minus-HF (%): 0.0%
  Sulfone (%): 0.0%
  Chromophore Remaining (%): 85.2%
[2]; [3]
  Ratio of chromophore remaining relative to S340: 0.93
[2]
  Photostability (in words): more rapid degradation compared to S340

## COc1ccc2oc(-c3ccc(C(C)(C)C)cc3)c(C3=C(c4cc(-c5ccc(C(C)(C)C)s5)sc4-c4ccc(C(C)(C)C)s4)C(F)(F)C(F)(F)C3(F)F)c2c1 [Chromophore S344, 2-(4-(tert-butyl)phenyl)-3-(2-(5,5″-di-tert-butyl-[2,2′:5′,2″-terthiophen]-3′-yl)-3,3,4,4,5,5-hexafluorocyclopent-1-en-1-yl)-5-methoxybenzofuran]
[1]
  YI (Yellowness Index): 2.91
  Abs @ 400 nm, RO (Absorption of ring-open isomer at 400 nm): 0.1
[2]; 3 wt % in Rhodiasolv IRIS
  Ketone (%): 0.0%
  Minus-2HF (%): 8.0%
  Minus-HF (%): 25.7%
  Sulfone (%): 0.0%
  Chromophore Remaining (%): 65.1%
[2]; [3]
  Ratio of chromophore remaining relative to S340: 0.71
[2]
  Photostability (in words): more rapid degradation compared to S340

## COCCOc1cc2oc(-c3ccc(C(C)(C)C)cc3)c(C3=C(c4cc(-c5ccc(C(C)(C)C)s5)sc4-c4ccc(C(C)(C)C)s4)C(F)(F)C(F)(F)C3(F)F)c2cc1OCCOC [Chromophore S364, 2-(4-(tert-butyl)phenyl)-3-(2-(5,5″-di-tert-butyl-[2,2′:5′,2″-terthiophen]-3′-yl)-3,3,4,4,5,5-hexafluorocyclopent-1-en-1-yl)-5,6-bis(2-methoxyethoxy)benzofuran]
[1]
  YI (Yellowness Index): 4.21
  Abs @ 400 nm, RO (Absorption of ring-open isomer at 400 nm): 0.105
[2]; 10 wt % in Rhodiasolv IRIS
  Ketone (%): 0.6%
  Minus-2HF (%): 2.7%
  Minus-HF (%): 14.9%
  Sulfone (%): 0.0%
  Chromophore Remaining (%): 80.4%
[2]; [5]
  Ratio of chromophore remaining relative to S340: 0.88
[2]
  Photostability (in words): decreased stability

## CC(=O)Oc1cc2oc(-c3ccc(C(C)(C)C)cc3)c(C3=C(c4cc(-c5ccc(C(C)(C)C)s5)sc4-c4ccc(C(C)(C)C)s4)C(F)(F)C(F)(F)C3(F)F)c2cc1OC(C)=O [Chromophore S367, 2-(4-(tert-butyl)phenyl)-3-(2-(5,5″-di-tert-butyl-[2,2′:5′,2″-terthiophen]-3′-yl)-3,3,4,4,5,5-hexafluorocyclopent-1-en-1-yl)benzofuran-5,6-diyl diacetate]
[1]
  YI (Yellowness Index): 5.47
  Abs @ 400 nm, RO (Absorption of ring-open isomer at 400 nm): 0.102
[2]; 10 wt % in Rhodiasolv IRIS
  Ketone (%): 1.1%
  Minus-2HF (%): 0.0%
  Minus-HF (%): 56.0%
  Sulfone (%): 0.0%
  Chromophore Remaining (%): 40.8%
[2]; [5]
  Ratio of chromophore remaining relative to S340: 0.45
[2]
  Photostability (in words): more rapid degradation compared to S340
